Reference: patent US20240109855A1, “ANTI-QUORUM SENSING, ANTI-BIOFILM, AND INFLAMMATION ATTENUATING COMPOUNDS, COMPOSITIONS, AND METHODS OF USING SAME” (priority 2021, published 2024)
“Also recorded” adds a separate entry of the source.

Tests used:
[1] = system: elastase; assay: Elastase secretion by P. aeruginosa; assay type: cell-based; details: data not shown
[2] = system: P. aeruginosa biofilm; assay: P. aeruginosa biofilm formation under flow conditions (CLSM, IMARIS); assay type: cell-based
Experimental: FIGS. 15A-15B include fluorescent micrographs and a vertical bar graph showing that Pl-18 inhibits P. aeruginosa biofilm formation. The biofilm was grown under continuous flow conditions for 72 hr with 10 μM, 40 μM PL-18 or 0.04% DMSO. CLSM images visualize viable bacteria stained green and dead bacteria red using the BacLight® Dead/Live Kit. Scanned areas were 318 μm×318 μm. (15A) IMARIS images. Scale bar is 50 μm. (15B) A graph showing the mean±SD of the biofilm volume generated from three independent sets of flow-cell experiments. Two-way ANOVA Bonferroni's multiple comparisons test, 95% confidence interval (p-values ***≤0.0002).
The anti-biofilm activity of PL-18 was tested in flow conditions for 72 hours. The biofilm was visualized by CLSM and quantified using the IMARIS software.

[3] = system: gram-positive and gram-negative bacteria; assay: Antibacterial activity, overall statement (diffusion discs test); assay type: cell-based; details: Table 6 summary; also: key: +: active; −: inactive
Experimental: All derivatives were dissolved in acetonitrile to a final concentration of 40 mM. Twenty (20) μl were loaded onto Whatman filter paper discs and dried. Bacillus subtilis, Staphylococcus aureus, and Acinetobacter baumannii were grown in LB (Lenox) O.N. One hundred (100) μl from the starter culture was plated on LB agar (Miller) dishes. Streptococcus sobrinus, and Streptococcus mutans grown in Brain Heary Infusion (BHI, Himedia) O.N. were similarly plated on BHI agar dishes. Discs were laid and incubated O.N. in 37° C. and the diameter of inhibition of bacterial growth was measured.
The antibacterial activities of derivatives showing QSI are outlined in Table 4. […] Similar to that idea, synthetic derivatives of furanon (product of marine algae) shown in-vivo QSI activity without antibacterial activity followed by immune response of the infected animal. Phenolic compounds decrease QS and virulence in PA01 and Chromobacterium violaceum. There is increasing number of studies, searching for compounds that targeting non-vital processes to combat bacteria.

[4] = in vitro; details: human, LC50
Experimental: (§1) The human Hodgkin's Lymphoma derived L428 cell line was used as a model. The cells were grown in RPMI Medium 1640 with 10% FBS, 1% Glutamine and pen-strep (all from Biological Industries, Israel). […] Thirty thousand (30,000) cells/well were placed in 96-well plates with the coumaperine derivatives at different concentrations or with vehicle (DMSO) at a final volume of 200 μl. The plates were incubated for 48 hrs. at 37° C. and 5% CO2 followed by the addition of 50 μl of the XTT reagent tetrazolium-formazan, (Biological Industries, Israel) was added for 2 hrs. at 37° C., 5% CO2. In living cells, mitochondria […] the tetrazolium-formazan salt, thereby generating a color absorbing product at 450 nm. Absorbance was measured at 450 nm and 650 nm in an enzyme-linked immunosorbent assay (ELISA) plate reader (Multiskan Spectrum, Version 1.2), and recorded. Absorption values at 650 nm were subtracted from the blank and the 450 nm values. The results were normalized to the control (treated with DMSO).
(§2) Viability was determined in triplicate in two independent tests. The results were normalized to vehicle (DMSO) treated cells, (100% viability). Mean+SD.

[5] = system: L428 cells; assay: in vitro
Experimental: as §1, §2

[6] = system: quorum sensing (CV026 and KYC55); assay: Quorum sensing inhibition, overall statement over the bio-reporter bacteria; assay type: cell-based
Experimental: TLC preparation: all derivatives were dissolved in 100% acetonitrile to a concentration of 40 mM. Then placed 20 μlon the same spot on the TLC and let the solvent evaporate before use. CV026: few colonies were transferred to liquid LB (Lenox) for overnight incubation at 30° C. in a 45 degree in orbital shaker. At the O.D. 0.8 3 ml of the starter was added to preheated soft LB agar containing 500 nM of 3-oxo-C6 (Sigma-Aldrich). The mixture was then loaded on the TLC in a glass plate for O.N. incubation in 30° C. The next day inhibition zone was measured, while QS is taking place bacteria produce purple pigment, and when QS is inhibited no pigment is produced. KYC55 (pJZ372) (pJZ384) (pJZ410): 20 μl from the frozen stock into 25 ml AT media (AT buffer×20: 1.57 M KH2PO4 pH=7.3. AT salts mix×20: 300 mM (NH4)2SO4, 13 mM MgSO4, 1.4 mM CaCl2, 0.4 mM FeSO4·7H2O, 0.26 mM MnSO4·H2O. AT media: 50 ml×20 AT-buffer, 50 ml×20 AT-salts, 10 ml 50% (w/v) glucose, add 890 ml to final volume of 1 liter.) For O.N. at 30° C. in an orbital shaker. Into preheated water agar with 25 ml AT-buffer, and 60 μg/ml X-gal and 5 nM 3-oxo-c8 (both from Sigma-Aldrich) 25 ml of the starter was added. Then, that mixture was loaded on the TLC in glass plate for O.N. incubation in 30° C. The next day the inhibition zone was measured. The bacteria produce blue pigment during QS and when QS is inhibited no pigment is produced. KYC55 (pJZ372) (pJZ384) (pJZ410) preservation in tetracycline (1 μg/ml), spectinomycin (100 μg/ml), gentamicin (100 μg/ml) (all antibiotics from Sigma Aldrich) in AT media O.N. then centrifuged and suspend in 15% glycerol frozen and maintained at −80° C.
All the synthesized compounds were evaluated for quorum sensing inhibition against two bioreporter bacteria strains, Chromobacterium violaceum (CV026) and Agrobacterium tumefaciens (KYC55) and the results are summarized in Table 1.

[7] = system: P. aeruginosa; assay: Toxicity to P. aeruginosa (CFU scoring, kinetic O.D.600nm); assay type: cell-based; details: at the concentrations tested, data not shown
Experimental: The inventors also determined the toxicity of PL-18 to P. aeruginosa. Viability was tested by scoring CFUs of PL-18 treated P. aeruginosa cultures and bacterial growth was determined by incubation with PL-18 for kinetic O.D.600nm measurements.

[8] = system: Agrobacterium tumefaciens (KYC55); assay: Quorum sensing inhibition test with bio-reporter KYC55 (TLC overlay); assay type: cell-based; as to Degree of quorum sensing inhibition (QSI), KYC55: key: −: no inhibition; +: low inhibition; ++: medium inhibition; +++: strong inhibition
How it was run: (§3)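 Compounds (40 mM in acetonitrile, 20 μl) were spotted on TLC and overlaid with soft agar reporter cultures, incubated overnight at 30 °C. CV026 was in LB with 500 nM 3-oxo-C6 (purple pigment), and KYC55 was in AT medium with 5 nM 3-oxo-C8 and 60 μg/ml X-gal (blue). Inhibition zone diameter was measured.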

[9] = system: P. aeruginosa; assay: Motility of P. aeruginosa; assay type: cell-based; details: data not shown
[10] = system: Chromobacterium violaceum (CV026); assay: Quorum sensing inhibition test with bio-reporter CV026 (TLC overlay); assay type: cell-based; as to Degree of quorum sensing inhibition (QSI), CV026: key: −: no inhibition; +: low inhibition; ++: medium inhibition; +++: strong inhibition
How it was run: as §3

[11] = Table 2, piperlongumine derivatives

For `COc1cc(/C=C/C(=O)N2CCC=CC2=O)cc(O)c1O` [PL-18, Dihydroxy piperlongumine], which “Inhibition of elastase secretion” value [1] is on record?
Its value is “not shown to inhibit; also recorded: not found to inhibit”.

And the inhibition at 40 µM ([2]; Pseudomonas aeruginosa, 72 h, read-out: Inhibition of P. aeruginosa biofilm formation)?
The inhibition at 40 µM was 85%.

What about the “Attenuation of biofilm formation, in words” value ([2]; running text) of the same molecule?
The value was “effectively attenuate”.

What about the Antibacterial [3] of the same molecule?
The Antibacterial was “−”.

What about the CC50 at 48 h [4] of the same molecule?
The CC50 at 48 h was 9.3 µM.

What about the Cytotoxic [5] of the same molecule?
The Cytotoxic was “+”.

And the QSI ([6]; Table 6 summary)?
The QSI was “+”.

What about the “QSI activity overall, in words” value ([6]; running text) of the same molecule?
The value was “moderate”.

What about the “Effect on P. aeruginosa growth (O.D.600nm)” value [7] of the same molecule?
The value was “did not affect P. aeruginosa growth”.

What about the “Toxicity to P. aeruginosa (viability, CFUs)” value [7] of the same molecule?
The value was “non-toxic”.

And the “Degree of quorum sensing inhibition (QSI), KYC55” value [8, 11]?
Its value is “+++”.

And the “QSI activity against KYC55, in words” value ([8]; running text)?
The value was “strong quorum sensing inhibition”.

And the Inhibition of motility [9]?
Its Inhibition of motility is “not shown to inhibit; also recorded: not found to inhibit”.

What about the “Degree of quorum sensing inhibition (QSI), CV026” value [10, 11] of the same molecule?
Its value is “++”.

And the “QSI activity against CV026, in words” value ([10]; running text)?
The value was “moderate activity”.
